Assay results published in patent US20100136573A1, “DIAGNOSING NEURODEGENERATIVE DISEASES” (priority 2007, published 2010).
One block for each compound: values may come before it. Where a SMILES comes first, the peptide text is derived from it. The star is where a group is joined. Cbz = O=C(OCc1ccccc1)*; OtBu = CC(C)(C)O*; CH2F = FC*

Experiments:
[1] = tested on: H4 neuroglioma cells; assay: Proteasome-induced toxicity, Western blot; type: cell-based
Experimental: H4 neuroglioma cells were grown in Opti-Mem plus 10% FBS and 1% pen-strep. Cells were plated in 6-well plates and at 90% confluency treated with 10 μM proteasome inhibitor I (PSI) (EMD Chemicals, Inc. San Diego, Calif.) or 100 μM pan-caspase inhibitor (Z-VAD-FMK) (EMD Chemicals, Inc. San Diego, Calif.) separately or in combination. Twenty-four hours after treatment, the cells were harvested for subsequent Western blot analysis in the Co-IP buffer (50 mM Tris-HCl, pH 7.4, 1 M NaCl, 1% Triton-X-100, 5 mM EDTA) plus 1% SDS, PMSF, and protease and phosphatase inhibitors.
Protein concentrations of cells lysates were measured by a standard BCA assay (Pierce, Rockford, Ill.). Then, the samples were heated in Laemmli's buffer, and equal amounts of protein were loaded into 10-well 10% or 4-20% Tris-glycine gels (Novex, San Diego, Calif.). After transfer, blots were blocked with 5% nonfat dry milk in TBST ([…]) for 1 hour, and then incubated with rabbit polyclonal TDP-43 antibody (1:500; ProteinTech Group, Inc, Chicago, Ill.), rabbit polyclonal caspase-3 antibody (1:1000; Cell Signaling, Beverly, Mass.), HSP70 (1:2000; Stressgen, Ann Arbor, Mich.), GADPH (1:5000; Biodesign International, Kennebunkport, Me.), or mouse monoclonal β-actin antibody (1:5000, Sigma, Saint Louis, Miss.) overnight at 4° C. Membranes were washed three times each for 10 minutes with TBST and then incubated with anti-mouse or anti-rabbit IgG conjugated to horseradish peroxidase (1:2000; Jackson ImmunoResearch, West Grove, Pa.) for 1 hour. Membranes were then washed three times each for 10 minutes, and protein expression was visualized by ECL treatment and exposure to film.

[2] = tested on: differentiated M17 neuroblastoma cells; assay: Toxicity assay (LDH release, activated caspase-3 staining); type: cell-based; settings: for activated caspase-3 staining: confocal microscopy; for LDH levels compared to cells expressing only GFP: medium collected 72 hours after transfection
Experimental: M17 neuroblastoma cells, seeded at 2.5×10^3 cells per well in 24-well plates, were grown in Neurobasal A/B27 medium containing Glutamax (Invitrogen) and 10 μM retinoic acid (Sigma) to induce differentiation. Seven days later, cells were transfected with 0.2 μg of expression vector for 72 hours. The medium was collected, and a LDH assay (Promega) was used to measure LDH levels as an indicator of toxicity. Then, cells were fixed, and immunofluorescent staining was done using an antibody against activated caspase-3 (1:250; Cell signaling) and the nuclear marker, bisbenzimide (Hoechst 33258).
(§1) The cultured HEK293 and differentiated M17 cells were fixed with 4% paraformaldehyde in phosphate-buffered saline (PBS) at 4° C. for 15 minutes and permeabilized with PBS-0.5% Triton X-100 for 10 minutes. After blocking with 5% BSA for 1 hour at 37° C., the cells were incubated overnight at 4° C. with mouse monoclonal HA antibody (1:1000, Roche Applied Science), rabbit polyclonal activated caspase-3 antibody (1:250, Cell Signaling), rabbit polyclonal anti-pTDP-43 (which detects phosphorylated S409/S410; 1:1000, COSMO BIO CO., LTD), mouse monoclonal Flag antibody (1:1000, Sigma), rabbit polyclonal M2085 (1:1000), or rabbit polyclonal M2079 (1:1000). After washing, cells were incubated with the Alexa 568-conjugated goat anti-mouse IgG secondary antibody (1:1000, Molecular Probes) or anti-rabbit IgG secondary antibody (1:500, Molecular Probes) at 37° C. for 2 hours. Finally, Hoechst 33258 (1 μg/mL, Invitrogen) was used to stain the nuclei. Images were obtained on a Zeiss LSM 510 META confocal microscope.

[3] = tested on: HEK293 cells; assay: Inclusion formation and distribution of GFP-TDP-43 constructs, confocal microscopy; type: cell-based; settings: for cellular distribution: HEK293, confocal fluorescence microscopy
Experimental: HEK293 cells, grown on glass coverslips, were transfected with 0.3 μg of expression vector (GFP, GFP-TDP-43, GFP-TDP-43-caspase-resistant, GFP-TDP-35, GFP-TDP-25, or GFP-TDP-ΔNR1) by using Lipofectamine 2000 (Invitrogen) according to the manufacturer's instructions then subjected to immunofluorescence analysis 48 hours later. To determine if the cytoplasmic inclusion were insoluble, some cells were treated with 0.2% Triton X-100 prior to fixation, in order to remove soluble protein. To determine if the formation of inclusion was aggresome-dependent, some cells were treated with 1 μM nocodazole (Sigma) for 24 hours after 6 hours of transfection. Finally, to examine if inclusions were ubiquitinated, cells were cotransfected with 0.3 μg of a TDP-43 construct and 0.5 μg HA-ubiquitin, then subjected to immunofluorescence analysis 72 hours later.
as §1

[4] = biological target: T1, Flag-TDP-43 (Homo sapiens, UniProt Q13148); assay: Co-immunoprecipitation with Flag-TDP-43; type: binding; settings: HeLa cells, probing for GFP
T1 construct: the exon skipping activity in cells overexpressing full-length TDP-43 was examined; expressed in transfected cells; host or cells: HeLa cells
T1 sequence (Q13148 whole entry): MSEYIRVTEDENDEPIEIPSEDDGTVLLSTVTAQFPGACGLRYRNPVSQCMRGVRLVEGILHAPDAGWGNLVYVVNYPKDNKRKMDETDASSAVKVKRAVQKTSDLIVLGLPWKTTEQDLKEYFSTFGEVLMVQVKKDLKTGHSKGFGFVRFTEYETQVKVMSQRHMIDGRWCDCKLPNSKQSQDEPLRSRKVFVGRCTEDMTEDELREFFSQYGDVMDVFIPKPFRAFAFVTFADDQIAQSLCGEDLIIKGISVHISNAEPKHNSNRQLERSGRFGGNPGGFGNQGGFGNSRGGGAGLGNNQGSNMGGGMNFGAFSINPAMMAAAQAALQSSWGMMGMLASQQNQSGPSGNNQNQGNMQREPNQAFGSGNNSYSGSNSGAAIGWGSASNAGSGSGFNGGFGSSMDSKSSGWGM
Experimental: (§2) For co-immunoprecipitation studies, HeLa cells were transfected with 1 or 2 μg of each plasmid. Cells were harvested 48 hours later using Co-IP buffer (50 mM Tris-HCl, pH 7.4, 1 M NaCl, 1% Triton X-100, 5 mM EDTA) containing PMSF as well as protease and phosphatase inhibitors. The lysates were sonicated and centrifuged at 16,000 g for 20 minutes. The protein concentration of supernatants was determined by BCA assay (Thermo Scientific). Supernatant containing 500 μg of total protein was combined with Anti-Flag M2 agarose (Sigma) and incubated overnight at 4° C. with gentle shaking. The agarose was pelleted by centrifugation at 2,500 g for 5 minutes and washed with Co-IP buffer 6 times. Captured protein was eluted from the beads using loading buffer and resolved by SDS-PAGE for Western blot analysis.

[5] = biological target: T2, hnRNPA2 (Homo sapiens, UniProt P22626); assay: Co-immunoprecipitation with Flag-tagged hnRNPA2; type: binding; settings: HeLa cells, probing for GFP
T2 construct: expressed in transfected cells; host or cells: HeLa cells
T2 sequence (P22626 1-341 isoform P22626-2, species assumed): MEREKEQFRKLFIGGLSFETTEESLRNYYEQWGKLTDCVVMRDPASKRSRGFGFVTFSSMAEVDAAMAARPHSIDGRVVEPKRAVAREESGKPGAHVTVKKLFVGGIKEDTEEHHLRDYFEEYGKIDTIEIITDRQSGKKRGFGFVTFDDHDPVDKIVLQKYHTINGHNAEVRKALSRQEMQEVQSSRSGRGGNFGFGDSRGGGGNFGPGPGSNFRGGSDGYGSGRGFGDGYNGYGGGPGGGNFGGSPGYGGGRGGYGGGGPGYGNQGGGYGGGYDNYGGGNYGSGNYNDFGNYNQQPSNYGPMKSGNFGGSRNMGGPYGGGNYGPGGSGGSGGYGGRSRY
Experimental: as §2

[6] = tested on: TDP-43 exon 9 skipping activity; assay: CFTR mini-gene splicing assay; type: cell-based; settings: for CFTR exon 9 exclusion (endogenous TDP-43 background): HeLa cells cotransfected with CFTR minigene, RT-PCR, compared to GFP; for exon skipping activity in cells overexpressing Flag-TDP-43: cotransfected with CFTR mini-gene and Flag-TDP-43
Experimental: The CFTR mini-gene splicing assay was conducted as described elsewhere (Pagani et al., J. Biol. Chem., 275(28):21041-21047 (2000) and Ayala et al., FEBS Lett., 580(5):1339-1344 (2006)). In brief, Hela cells were co-transfected with 1 μg of minigene construct and 1 μg of GFP-fusion protein expression vector. […] Then, 2 μg of total RNA was used to synthesize cDNA using the SuperScript III First-Strand Synthesis System (Invitrogen). For the PCR, 2 μL of cDNA was used in a 20 μL of reaction according to the manufacturer's protocol for Taq PCR Core Kit (Qiagen). The amplification conditions consisted of an initial denaturation step at 94° C. for 3 minutes, followed by 30 cycles of 94° C. for 30 seconds, 62° C. for 60 seconds, and 72° C. for 90 seconds.

[7] = tested on: TDP-43; assay: Proteolytic processing of TDP-43 and caspase-3, Western blot of HeLa and H4 cells; type: cell-based
Experimental: For progranulin small interfering RNA (siRNA) transfections, siRNA was predesigned by QIAGEN (QIAGEN Inc, Valencia, Calif.) for GenBank Accession Number NM—001012479, and the sense sequence was 5′-r([sequence])dTdT-3′ (SEQ ID NO:5). siRNA experiments were carried out in 6-well plates. Final siRNA concentration (progranulin or a validated negative control siRNA) per well was 20 nM in Opti-Mem, with 4 μL of siLentFect transfection reagent (Bio-Rad, Hercules, Calif.) used per well. This mixture was incubated in a final volume of 500 μL for 20 minutes and then added to 40%-50% confluent HeLa and H4 cells in 6-well dishes plated the previous day for a final in-well volume of 2 mL. Seventy-two hours after transfection, cells were harvested for subsequent Western blot analysis in lysis buffer containing Co-IP buffer (50 mM Tris-HCl, pH 7.4, 1 M NaCl, 1% Triton-X-100, 5 mM EDTA) plus 1% SDS, PMSF, and both a protease and phosphatase inhibitor mixture. For caspase inhibitor treatment, the cells were transfected with progranulin siRNA for 24 hours, and then the pan-caspase inhibitor (Z-VAD-FMK) (EMD Chemicals, Inc. San Diego, Calif.) was added to cells for additional 48 hours at a final concentration of 100 μM. Cell lysates was prepared as described herein. […]
Protein concentrations of cells lysates were measured by a standard BCA assay (Pierce, Rockford, Ill.). […]

[8] = tested on: HeLa or H4 cells; assay: Immunofluorescence and confocal microscopy of TDP-43 localization; type: cell-based; settings: 1 μM for 3 hours, in contrast to untreated cells
[9] = co-treated with PSI 10 μM and caspase inhibitor 100 μM, 24 hours

Compound: CC[C@H](C)[C@H](NC(=O)OCc1ccccc1)C(=O)N[C@@H](CCC(=O)OC(C)(C)C)C(=O)N[C@@H](C)C(=O)N[C@H](C=O)CC(C)C [PSI] (Cbz-IE(OtBu)AL-aldehyde)
HSP70 levels ([1]; PSI 10 μM, 24 hours): increased
cleavage of endogenous cellular TDP-43 ([1]; PSI 10 μM, 24 hours): cleaved into ˜35 and ˜25 kD fragments
cleaved (active) caspase-3 levels ([1]; PSI 10 μM, 24 hours): marked increase
full length TDP-43 band (˜43 kD) ([1]; PSI 10 μM, 24 hours): reduction

Compound: GFP-TDP-43-caspase-resistant: GFP-tagged TDP-43 with aspartic acid at positions 89 and 219 substituted to glutamic acid
activated caspase-3 staining [2]: did not stain
LDH levels compared to cells expressing only GFP [2]: comparably increased
cellular distribution [3]: localized almost exclusively to the nucleus

binding to Flag-TDP-43 [4]: bound strongly
binding to hnRNPA2 [5]: interact with hnRNPA2
Compound: GFP-TDP-43: full-length wild-type TDP-43 tagged at the amino terminal with enhanced GFP
activated caspase-3 staining [2]: did not stain
LDH levels compared to cells expressing only GFP [2]: comparably increased
CFTR exon 9 exclusion (endogenous TDP-43 background) [6]: marked increase in exon exclusion
exon skipping activity in cells overexpressing Flag-TDP-43 [6]: promoted exon 9 exclusion
cellular distribution [3]: localized almost exclusively to the nucleus

binding to Flag-TDP-43 [4]: bound strongly
Compound: GFP-TDP1-257: GFP-tagged C-terminal deletion product of TDP-43

Compound: COC(=O)Nc1nc2ccc(C(=O)c3cccs3)cc2[nH]1 [nocodazole, reference compound]
effect on inclusions formed by GFP-TDP-25 and GFP-TDP-35 ([3]; 1 μM for 24 hours after 6 hours of transfection): not disrupted

Compound: COC(=O)C[C@H](NC(=O)[C@H](C)NC(=O)[C@@H](NC(=O)OCc1ccccc1)C(C)C)C(=O)CF [Z-VAD (OMe)-FMK] (Cbz-Val-Ala-Asp(OMe)-CH2F)
HSP70 levels ([1]; PSI plus caspase inhibitor): persisted
PSI-induced caspase-3 activity [1, 9]: suppressed
generation of proteolytic TDP-43 fragments [1, 9]: inhibited
caspase-3 activity ([7]; PGRN RNAi-treated HeLa cells plus pan-caspase inhibitor): suppresses
production of ˜35 and ˜25 kD TDP-43 fragments ([7]; PGRN siRNA-treated cells, inhibitor 100 μM for additional 48 hours): inhibited

binding to Flag-TDP-43 [4]: only weakly interacted
binding to hnRNPA2 [5]: did indeed interact
Compound: GFP-TDP76-414: GFP-tagged second C-terminal fragment (76-414) that retains nuclear distribution
CFTR exon 9 exclusion (endogenous TDP-43 background) [6]: did not promote exon 9 exclusion
exon skipping activity in cells overexpressing Flag-TDP-43 [6]: markedly reduced

binding to Flag-TDP-43 [4]: bound strongly
binding to hnRNPA2 [5]: failed to bind
Compound: GFP-TDP1-175: GFP-tagged C-terminal deletion mutant lacking the glycine rich region

Compound: CN[C@@H]1C[C@H]2O[C@@](C)([C@@H]1OC)n1c3ccccc3c3c4c(c5c6ccccc6n2c5c31)C(=O)NC4 [staurosporine]
TDP-43 cellular localization [8]: increased cytoplasmic TDP-43 staining
